Earlier results, collected in patent US9023853B2, “Janus kinase 2 (JAK2) inhibitor for the treatment of lupus” (Cephalon, Inc., priority 2010, dated 2015).
Read-outs that look alike come from different tables or passages of the source.

Conditions: cited from earlier work

CCS(=O)(=O)N1CC(CC#N)(n2cc(-c3ncnc4[nH]ccc34)cn2)C1 [INCB028050]
effectiveness in rheumatoid arthritis (doses of 4-10 mg once daily): effective

CC1CCN(C(=O)CC#N)CC1N(C)c1ncnc2[nH]ccc12 (stereo in doubt) [tasocitinib]
effectiveness in rheumatoid arthritis (doses of 5-30 mg twice per day): effective
